In the assay the test system is HBV rcDNA in HepDE19 cells. Put plainly: HepDE19 assay with bDNA quantitation of HBV rcDNA. It is filed as cell-based, hepatitis B virus. Particulars: Hepatitis B virus, HepDE19, HepDE19 assay, inhibition of rcDNA formation, bDNA quantitation; read-out: DE-19bDNA EC50.
Broadly, the EC50 is the concentration that produces a half-maximal response. On to `CN(C(=O)C(F)(F)c1cccc(Br)c1)[C@@H]1COCc2[nH]c(=O)c3cc(F)c(F)cc3c21` [Compound 252, (S)-2-(3-Bromophenyl)-N-(8,9-difluoro-6-oxo-1,4,5,6-tetrahydro-2H-pyrano[3,4-c]isoquinolin-1-yl)-2,2-difluoro-N-methylacetamide], for which the EC50 is 7.7 µM. With `CN(C(=O)C(F)(F)c1ccc(Br)cc1)[C@@H]1COCc2[nH]c(=O)c3cc(F)c(F)cc3c21` [Compound 253, (S)-2-(4-Bromophenyl)-N-(8,9-difluoro-6-oxo-1,4,5,6-tetrahydro-2H-pyrano[3,4-c]isoquinolin-1-yl)-2,2-difluoro-N-methylacetamide], the EC50 amounted to 8 µM. `CN(C(=O)c1cc2c(C(F)F)c(F)ccc2[nH]1)[C@@H]1COCc2[nH]c(=O)c3cc(F)c(F)cc3c21` [Compound 254, (S)-N-(8,9-Difluoro-6-oxo-1,4,5,6-tetrahydro-2H-pyrano[3,4-c]isoquinolin-1-yl)-4-(difluoromethyl)-5-fluoro-N-methyl-1H-indole-2-carboxamide]: the EC50 worked out at 0.01 µM.

For `CN(C(=O)c1ccn2ccccc12)[C@@H]1COCc2[nH]c(=O)c3cc(F)c(F)cc3c21` [Compound 261, (S)-N-(8,9-Difluoro-6-oxo-1,4,5,6-tetrahydro-2H-pyrano[3,4-c]isoquinolin-1-yl)-N-methylindolizine-1-carboxamide], the EC50 is 6.4 µM. As to `CN(C(=O)c1ccc(-c2ccc(F)cc2)c(F)c1)[C@@H]1COCc2[nH]c(=O)c3cc(F)c(F)cc3c21` [Compound 262, (S)-N-(8,9-Difluoro-6-oxo-1,4,5,6-tetrahydro-2H-pyrano[3,4-c]isoquinolin-1-yl)-2,4′-difluoro-N-methyl-[1,1′-biphenyl]-4-carboxamide], the EC50 is 17.2 µM. In the case of `CN(C(=O)c1cc(-c2ccc(F)cc2)on1)[C@@H]1COCc2[nH]c(=O)c3cc(F)c(F)cc3c21` [Compound 263, (S)-N-(8,9-Difluoro-6-oxo-1,4,5,6-tetrahydro-2H-pyrano[3,4-c]isoquinolin-1-yl)-5-(4-fluorophenyl)-N-methylisoxazole-3-carboxamide], the EC50 turned out to be 14.7 µM. As for `CN(C(=O)c1cc2cccc(C(F)F)n2c1)[C@@H]1COCc2[nH]c(=O)c3cc(F)c(F)cc3c21` [Compound 266, (S)-N-(8,9-Difluoro-6-oxo-1,4,5,6-tetrahydro-2H-pyrano[3,4-c]isoquinolin-1-yl)-5-(difluoromethyl)-N-methylindolizine-2-carboxamide], the EC50 was 0.02 µM. As to `CN(C(=O)c1cc2nc(Br)ccc2[nH]1)[C@@H]1COCc2[nH]c(=O)c3cc(F)c(F)cc3c21` [Compound 268, (S)-5-Bromo-N-(8,9-difluoro-6-oxo-1,4,5,6-tetrahydro-2H-pyrano[3,4-c]isoquinolin-1-yl)-N-methyl-1H-pyrrolo[3,2-b]pyridine-2-carboxamide], the EC50 stood at 1.8 µM. Turning to `CN(C(=O)C1Cc2ccccc21)[C@@H]1COCc2[nH]c(=O)c3cc(F)c(F)cc3c21` (stereo partly drawn) [Compound 269, N-((S)-8,9-Difluoro-6-oxo-1,4,5,6-tetrahydro-2H-pyrano[3,4-c]isoquinolin-1-yl)-N-methylbicyclo[4.2.0]octa-1(6),2,4-triene-7-carboxamide], the EC50 was determined as 18.6 µM.

On to `CN(C(=O)C1(O)Cc2ccccc2C1)[C@@H]1COCc2[nH]c(=O)c3cc(F)c(F)cc3c21` [Compound 275, (S)-N-(8,9-Difluoro-6-oxo-1,4,5,6-tetrahydro-2H-pyrano[3,4-c]isoquinolin-1-yl)-2-hydroxy-N-methyl-2,3-dihydro-1H-indene-2-carboxamide], for which the EC50 was 3.84 µM. As for `CN(C(=O)C1(O)Cc2cc(F)c(F)cc2C1)[C@@H]1COCc2[nH]c(=O)c3cc(F)c(F)cc3c21` [Compound 276, (S)-N-(8,9-Difluoro-6-oxo-1,4,5,6-tetrahydro-2H-pyrano[3,4-c]isoquinolin-1-yl)-5,6-difluoro-2-hydroxy-N-methyl-2,3-dihydro-1H-indene-2-carboxamide], the EC50 stood at 1.95 µM. With `Cc1cc2ccc(C(=O)N(C)[C@@H]3COCc4[nH]c(=O)c5cc(F)c(F)cc5c43)cn2c1` [Compound 277, (S)-N-(8,9-Difluoro-6-oxo-1,4,5,6-tetrahydro-2H-pyrano[3,4-c]isoquinolin-1-yl)-N,2-dimethylindolizine-6-carboxamide], the EC50 turned out to be 0.42 µM. On to `CN(C(=O)c1cc2sccc2[nH]1)[C@@H]1COCc2[nH]c(=O)c3cc(F)c(F)cc3c21` [Compound 278, (S)-N-(8,9-Difluoro-6-oxo-1,4,5,6-tetrahydro-2H-pyrano[3,4-c]isoquinolin-1-yl)-N-methyl-4H-thieno[3,2-b]pyrrole-5-carboxamide], for which the EC50 was 0.02 µM. `CN(C(=O)C1Cc2ccc(F)cc21)[C@@H]1COCc2[nH]c(=O)c3cc(F)c(F)cc3c21` (stereo partly drawn) [Compound 279, N-((S)-8,9-Difluoro-6-oxo-1,4,5,6-tetrahydro-2H-pyrano[3,4-c]isoquinolin-1-yl)-4-fluoro-N-methylbicyclo[4.2.0]octa-1(6),2,4-triene-7-carboxamide]: the EC50 came to 9.5 µM.

With `CN(C(=O)c1cc2cc(F)c(F)cc2[nH]1)[C@@H]1COCc2nc(OCCN)c3cc(F)c(F)cc3c21` [Compound 280, (S)-N-(6-(2-aminoethoxy)-8,9-difluoro-1,4-dihydro-2H-pyrano[3,4-c]isoquinolin-1-yl)-5,6-difluoro-N-methyl-1H-indole-2-carboxamide], the EC50 is 0.02 µM. As to `CN(C(=O)C1CN(c2ccsc2)C1)[C@@H]1COCc2[nH]c(=O)c3cc(F)c(F)cc3c21` [Compound 282, (S)-N-(8,9-Difluoro-6-oxo-1,4,5,6-tetrahydro-2H-pyrano[3,4-c]isoquinolin-1-yl)-N-methyl-1-(thiophen-3-yl)azetidine-3-carboxamide], the EC50 was determined as 0.29 µM.

On to `CN(C(=O)c1ccc(-c2cccc(F)c2)cc1)[C@@H]1COCc2[nH]c(=O)c3cc(F)c(F)cc3c21` [Compound 283, (S)-N-(8,9-Difluoro-6-oxo-1,4,5,6-tetrahydro-2H-pyrano[3,4-c]isoquinolin-1-yl)-3′-fluoro-N-methyl-[1,1′-biphenyl]-4-carboxamide], for which the EC50 was 4.7 µM. For `CN(C(=O)C1CN(c2cscc2Br)C1)[C@@H]1COCc2[nH]c(=O)c3cc(F)c(F)cc3c21` [Compound 284, (S)-1-(4-Bromothiophen-3-yl)-N-(8,9-difluoro-6-oxo-1,4,5,6-tetrahydro-2H-pyrano[3,4-c]isoquinolin-1-yl)-N-methylazetidine-3-carboxamide], the EC50 was determined as 0.05 µM. Take `CN(C(=O)c1ccc(-c2ccccc2F)cc1)[C@@H]1COCc2[nH]c(=O)c3cc(F)c(F)cc3c21` [Compound 285, (S)-N-(8,9-Difluoro-6-oxo-1,4,5,6-tetrahydro-2H-pyrano[3,4-c]isoquinolin-1-yl)-2′-fluoro-N-methyl-[1,1′-biphenyl]-4-carboxamide]: the EC50 came out at 19.7 µM. As for `CN(C(=O)c1ccc(-c2cc(F)cc(F)c2)cc1)[C@@H]1COCc2[nH]c(=O)c3cc(F)c(F)cc3c21` [Compound 286, (S)-N-(8,9-Difluoro-6-oxo-1,4,5,6-tetrahydro-2H-pyrano[3,4-c]isoquinolin-1-yl)-3′,5′-difluoro-N-methyl-[1,1′-biphenyl]-4-carboxamide], the 50% effective concentration (EC50) amounted to 12.9 µM. Turning to `CN(C(=O)c1ccc(-c2cc(F)cc(F)c2)c(F)c1)[C@@H]1COCc2[nH]c(=O)c3cc(F)c(F)cc3c21` [Compound 287, (S)-N-(8,9-Difluoro-6-oxo-1,4,5,6-tetrahydro-2H-pyrano[3,4-c]isoquinolin-1-yl)-2,3′,5′-trifluoro-N-methyl-[1,1′-biphenyl]-4-carboxamide], the EC50 turned out to be 12.7 µM. For the compound `CN(C(=O)c1cccc(-c2ccccc2)c1)[C@@H]1COCc2[nH]c(=O)c3cc(F)c(F)cc3c21` [Compound 288, (S)-N-(8,9-Difluoro-6-oxo-1,4,5,6-tetrahydro-2H-pyrano[3,4-c]isoquinolin-1-yl)-N-methyl-[1,1′-biphenyl]-3-carboxamide], the EC50 stood at 11.3 µM.

Turning to `CN(C(=O)c1cccc(-c2ccc(F)cc2)c1)[C@@H]1COCc2[nH]c(=O)c3cc(F)c(F)cc3c21` [Compound 289, (S)-N-(8,9-Difluoro-6-oxo-1,4,5,6-tetrahydro-2H-pyrano[3,4-c]isoquinolin-1-yl)-4′-fluoro-N-methyl-[1,1′-biphenyl]-3-carboxamide], the EC50 was found to be 6.4 µM. As for `CN(C(=O)c1cccc(-c2cccc(F)c2)c1)[C@@H]1COCc2[nH]c(=O)c3cc(F)c(F)cc3c21` [Compound 290, (S)-N-(8,9-Difluoro-6-oxo-1,4,5,6-tetrahydro-2H-pyrano[3,4-c]isoquinolin-1-yl)-3′-fluoro-N-methyl-[1,1′-biphenyl]-3-carboxamide], the EC50 came out at 2.3 µM. As for `CN(C(=O)c1cc(F)cc(-c2cccc(F)c2)c1)[C@@H]1COCc2[nH]c(=O)c3cc(F)c(F)cc3c21` [Compound 291, (S)-N-(8,9-Difluoro-6-oxo-1,4,5,6-tetrahydro-2H-pyrano[3,4-c]isoquinolin-1-yl)-3′,5-difluoro-N-methyl-[1,1′-biphenyl]-3-carboxamide], the EC50 turned out to be 10.1 µM.

On to `CN(C(=O)c1cccc(Oc2ccccc2)c1)[C@@H]1COCc2[nH]c(=O)c3cc(F)c(F)cc3c21` [Compound 292, (S)-N-(8,9-Difluoro-6-oxo-1,4,5,6-tetrahydro-2H-pyrano[3,4-c]isoquinolin-1-yl)-N-methyl-3-phenoxybenzamide], for which the EC50 amounted to 11.2 µM. `CN(C(=O)c1cccc(Oc2ccc(F)cc2)c1)[C@@H]1COCc2[nH]c(=O)c3cc(F)c(F)cc3c21` [Compound 293, (S)-N-(8,9-Difluoro-6-oxo-1,4,5,6-tetrahydro-2H-pyrano[3,4-c]isoquinolin-1-yl)-3-(4-fluorophenoxy)-N-methylbenzamide]: the EC50 was found to be 7.6 µM.

In the case of `CN(C(=O)c1cc2ccsc2[nH]1)[C@@H]1COCc2[nH]c(=O)c3cc(F)c(F)cc3c21` [Compound 294, (S)-N-(8,9-Difluoro-6-oxo-1,4,5,6-tetrahydro-2H-pyrano[3,4-c]isoquinolin-1-yl)-N-methyl-6H-thieno[2,3-b]pyrrole-5-carboxamide], the EC50 amounted to 0.05 µM.
